Source: the RepoRT retention time repository (doi:10.1016/j.chroma.2022.462867)

Assays:
Details in all cases: stereoisomer not certain
[1] = RP, Phenomenex Kinetex EVO C18, 150 × 3 mm, 2.6 µm, 40 °C, 0.35 mL/min, estimated dead time 1.9 min; A: water + 5 mM ammonium formate, pH 5; B: acetonitrile; gradient (min/%B) 0/5 20/100 25/100 30/5
[2] = RP, Phenomenex Kinetex PS C18, 150 × 3 mm, 2.6 µm, 40 °C, 0.35 mL/min, estimated dead time 1.9 min; A: water + 5 mM ammonium acetate, pH 5; B: methanol; gradient (min/%B) 0/5 20/100 25/100 30/5
[3] = HILIC, Phenomenex Kinetex HILIC, 150 × 3 mm, 2.6 µm, 40 °C, 0.35 mL/min, estimated dead time 1.9 min; A: water + 0.1% formic acid, pH 3; B: methanol; gradient (min/%B) 0/95 20/0 25/0 30/95
[4] = RP, Phenomenex Kinetex EVO C18, 150 × 3 mm, 2.6 µm, 40 °C, 0.35 mL/min, estimated dead time 1.9 min; A: water + 0.1% formic acid, pH 3; B: methanol; gradient (min/%B) 0/5 20/100 25/100 30/5

LC retention time [1] [min]	LC retention time [2] [min]	LC retention time [3] [min]	LC retention time [4] [min]	SMILES
6.48	9.2	4.13	5.49	CN(C)CC(c1ccc(O)cc1)C1(O)CCCCC1 (centres undefined) [O-Desmethylvenlafaxine]
11.5	12.8	3.47	9.18	O=C(NCC1CCCCN1)c1cc(OCC(F)(F)F)ccc1OCC(F)(F)F (centres undefined) [Flecainide]
3.66	7.52	3.02	–	CN1C(=O)CCC1c1cccnc1 (centres undefined) [Cotinine]
–	16.2	2.73	11.5	CC(C)(C)C(=O)C(Oc1ccc(Cl)cc1)n1ccnc1 (centres undefined) [Climbazole]
–	13.7	2.68	8.8	CCN=C1NC(NC(C)C)=NC(OC)N1 (centres undefined) [Atraton]
12.3	13.7	3.41	9.88	O=C(CCCN1CCC(O)(c2ccc(Cl)cc2)CC1)c1ccc(F)cc1 [Haloperidol]
13.3	17.1	3.31	11.5	COC(=O)C1C2CC3c4[nH]c5cc(OC)ccc5c4CCN3CC2CC(OC(=O)c2cc(OC)c(OC)c(OC)c2)C1OC (centres undefined) [Reserpine]
11.3	15.1	2.32	–	CCN=C1NC(NC(C)C)=NC(SC)N1 (centres undefined) [Ametryn]
12.9	17.1	3.65	10.4	C=CCOC(Cn1ccnc1)c1ccc(Cl)cc1Cl (centres undefined) [Imazalil]
12.2	17.6	4.05	11.2	CC(=O)N1CCN(c2ccc(OCC3COC(Cn4ccnc4)(c4ccc(Cl)cc4Cl)O3)cc2)CC1 (centres undefined) [Ketoconazole]

SMILES	LC retention time [1] [min]	LC retention time [2] [min]	LC retention time [3] [min]	LC retention time [4] [min]
NCC1(CC(=O)O)CCCCC1 [Gabapentin]	2.95	5.49	3.33	4.04
Cc1ccc(S(=O)(=O)N(C)N=O)cc1 [N-Methyl-N-nitrosotoluene-4-sulphonamide]	9.88	13.9	2.38	10.3
